ChEMBL document CHEMBL2203078, “Identification of amides as carboxylic Acid surrogates for quinolizidinone-based m1 positive allosteric modulators” (ACS Med Chem Lett, 2012)
Active and inactive are the calls of the source. The calls are words filed in the database; no cut-off is given here.

Experiments:
Mus musculus [1] = species: Mus musculus; assay: Inhibition of scopolamine-induced memory deficit in mouse measured at plasma concentration of 2.5 uM after 24 hrs by contexual fear conditioning assay; assay type: functional, organism-based
[2] = Protein binding in rat plasma; assay type: ADME, cell-free; conditions: read-out: PPB (converted)
[3] = biological target: T1, Muscarinic acetylcholine receptor M1 (Homo sapiens) (UniProt P11229); assay: Positive allosteric modulation of human muscarinic M1 receptor expressing in CHONFAT cells assessed as potentiation of acetylcholine-induced calcium mobilization preincubated for 4 mins and measured 4 mins after acetylcholine stimulation by FLIPR assay; assay type: functional, cell-based
T1 sequence (whole entry): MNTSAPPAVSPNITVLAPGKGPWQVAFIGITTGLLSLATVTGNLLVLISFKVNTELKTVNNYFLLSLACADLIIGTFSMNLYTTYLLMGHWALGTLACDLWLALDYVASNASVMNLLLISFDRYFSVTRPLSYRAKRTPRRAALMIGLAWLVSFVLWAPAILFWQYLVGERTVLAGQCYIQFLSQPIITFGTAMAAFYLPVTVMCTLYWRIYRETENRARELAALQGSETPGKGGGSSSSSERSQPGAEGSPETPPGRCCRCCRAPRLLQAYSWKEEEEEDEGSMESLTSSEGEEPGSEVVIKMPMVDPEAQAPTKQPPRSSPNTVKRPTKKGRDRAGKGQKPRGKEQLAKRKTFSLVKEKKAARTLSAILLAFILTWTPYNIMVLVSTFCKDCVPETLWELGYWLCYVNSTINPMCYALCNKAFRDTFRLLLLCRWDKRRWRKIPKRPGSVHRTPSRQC

[4] = Passive permeability across MDCK cells; assay type: ADME, cell-based, Canis lupus familiaris; conditions: dog
[5] = biological target: T2, Muscarinic acetylcholine receptor M2 (Homo sapiens) (UniProt P08172); assay: Activity at muscarinic M2 receptor expressing in CHONFAT cells assessed as potentiation of acetylcholine-induced calcium mobilization preincubated for 4 mins and measured 4 mins after acetylcholine stimulation by FLIPR assay; assay type: functional, cell-based
T2 sequence (whole entry): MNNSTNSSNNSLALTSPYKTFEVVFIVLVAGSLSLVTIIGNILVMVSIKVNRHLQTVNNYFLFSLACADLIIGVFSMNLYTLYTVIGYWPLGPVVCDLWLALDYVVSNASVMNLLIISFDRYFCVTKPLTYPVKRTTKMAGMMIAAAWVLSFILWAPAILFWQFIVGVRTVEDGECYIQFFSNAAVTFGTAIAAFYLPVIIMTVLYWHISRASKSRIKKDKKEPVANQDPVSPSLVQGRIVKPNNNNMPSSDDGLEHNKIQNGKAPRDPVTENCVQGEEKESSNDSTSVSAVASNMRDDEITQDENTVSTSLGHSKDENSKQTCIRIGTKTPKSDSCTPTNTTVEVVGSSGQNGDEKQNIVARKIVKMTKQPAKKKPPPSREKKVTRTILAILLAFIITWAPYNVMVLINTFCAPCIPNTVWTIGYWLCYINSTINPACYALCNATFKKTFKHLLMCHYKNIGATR

[6] = biological target: Muscarinic acetylcholine receptor M3 (Homo sapiens) (UniProt P20309); assay: Activity at muscarinic M3 receptor expressing in CHONFAT cells assessed as potentiation of acetylcholine-induced calcium mobilization preincubated for 4 mins and measured 4 mins after acetylcholine stimulation by FLIPR assay; assay type: functional, cell-based
[7] = Protein binding in human plasma; assay type: ADME, cell-free; conditions: read-out: PPB (converted)
[8] = biological target: T3, Muscarinic acetylcholine receptor M4 (Homo sapiens) (UniProt P08173); assay: Activity at muscarinic M4 receptor expressing in CHONFAT cells assessed as potentiation of acetylcholine-induced calcium mobilization preincubated for 4 mins and measured 4 mins after acetylcholine stimulation by FLIPR assay; assay type: functional, cell-based
T3 sequence (whole entry): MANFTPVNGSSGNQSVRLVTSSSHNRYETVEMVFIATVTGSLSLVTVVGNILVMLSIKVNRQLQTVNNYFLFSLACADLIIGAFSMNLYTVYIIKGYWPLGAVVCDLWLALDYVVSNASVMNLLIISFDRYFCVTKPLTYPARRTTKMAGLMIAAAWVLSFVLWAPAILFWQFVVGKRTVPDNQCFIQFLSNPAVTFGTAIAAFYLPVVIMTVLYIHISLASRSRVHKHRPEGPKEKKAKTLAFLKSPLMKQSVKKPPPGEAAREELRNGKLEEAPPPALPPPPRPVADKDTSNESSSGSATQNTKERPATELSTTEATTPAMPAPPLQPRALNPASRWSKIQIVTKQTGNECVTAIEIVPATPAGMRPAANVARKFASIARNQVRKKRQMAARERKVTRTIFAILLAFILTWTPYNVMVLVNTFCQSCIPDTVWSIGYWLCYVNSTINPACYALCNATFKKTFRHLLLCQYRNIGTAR

Plasma = assay: Plasma concentration in mouse scopolamine-induced memory deficit model at 10 mg/kg, ip; assay type: ADME, organism-based; design: dose 10 mg/kg, route intraperitoneal; conditions: in vivo
[9] = Ratio of drug level in brain to plasma of Sprague-Dawley rat at 10 mg/kg, po after 2 hrs; assay type: ADME, organism-based; design: dose 10 mg/kg, route oral; conditions: read-out: BPR
[10] = Drug concentration in Sprague-Dawley rat CSF at 10 mg/kg, po after 2 hrs; assay type: ADME, organism-based, Cerebrospinal fluid; design: dose 10 mg/kg, route oral; conditions: read-out: Drug uptake
MDR1a (P-gp, ABCB1) = MDR1a (P-gp, ABCB1) (Rattus norvegicus, UniProt P43245); assay: in vitro; conditions: not told
Description: Efflux ratio assessed as rat MDR1a-mediated directional transport ratio from basolateral to apical over apical to basolateral by cell based assay

[11] = biological target: T1, Muscarinic acetylcholine receptor M1 (Homo sapiens); assay: Positive allosteric modulation of human muscarinic M1 receptor expressing in CHONFAT cells assessed as potentiation of acetylcholine-induced calcium mobilization at 34 uM preincubated for 4 mins and measured 4 mins after acetylcholine stimulation by FLIPR assay relative to untreated control; assay type: functional, cell-based
Rattus norvegicus = assay: Ratio of drug level in CSF to unbound drug level in plasma of Sprague-Dawley rat at 10 mg/kg, po after 2 hrs; conditions: in vivo
Mus musculus [12] = assay: Inhibition of scopolamine-induced memory deficit in mouse pretreated with 10 to 30 mg/kg, ip after 24 hrs by contexual fear conditioning assay; assay type: functional, organism-based
MDR1 (P-gp, ABCB1) = MDR1 (P-gp, ABCB1) (Homo sapiens, UniProt P08183); assay: in vitro; conditions: not told
Description: Efflux ratio assessed as human MDR1-mediated directional transport ratio from basolateral to apical over apical to basolateral by cell based assay

[13] = Fraction unbound in human plasma; assay type: ADME, cell-free
[14] = Fraction unbound in rat plasma; assay type: ADME, cell-free
[15] = Plasma concentration in Sprague-Dawley rat at 10 mg/kg, po after 2 hrs; assay type: ADME, organism-based; design: dose 10 mg/kg, route oral
[16] = Drug concentration in Sprague-Dawley rat brain at 10 mg/kg, po after 2 hrs; assay type: ADME, organism-based; design: dose 10 mg/kg, route oral; conditions: read-out: Drug uptake
[17] = biological target: Voltage-gated inwardly rectifying potassium channel KCNH2 (Homo sapiens, UniProt Q12809); assay: Binding affinity to human ERG
Mus musculus [18] = species: Mus musculus; assay: Inhibition of scopolamine-induced memory deficit in mouse measured at plasma concentration of 1 uM after 24 hrs by contexual fear conditioning assay; assay type: functional, organism-based

MDR1 (P-gp, ABCB1), sequence (P08183 whole entry): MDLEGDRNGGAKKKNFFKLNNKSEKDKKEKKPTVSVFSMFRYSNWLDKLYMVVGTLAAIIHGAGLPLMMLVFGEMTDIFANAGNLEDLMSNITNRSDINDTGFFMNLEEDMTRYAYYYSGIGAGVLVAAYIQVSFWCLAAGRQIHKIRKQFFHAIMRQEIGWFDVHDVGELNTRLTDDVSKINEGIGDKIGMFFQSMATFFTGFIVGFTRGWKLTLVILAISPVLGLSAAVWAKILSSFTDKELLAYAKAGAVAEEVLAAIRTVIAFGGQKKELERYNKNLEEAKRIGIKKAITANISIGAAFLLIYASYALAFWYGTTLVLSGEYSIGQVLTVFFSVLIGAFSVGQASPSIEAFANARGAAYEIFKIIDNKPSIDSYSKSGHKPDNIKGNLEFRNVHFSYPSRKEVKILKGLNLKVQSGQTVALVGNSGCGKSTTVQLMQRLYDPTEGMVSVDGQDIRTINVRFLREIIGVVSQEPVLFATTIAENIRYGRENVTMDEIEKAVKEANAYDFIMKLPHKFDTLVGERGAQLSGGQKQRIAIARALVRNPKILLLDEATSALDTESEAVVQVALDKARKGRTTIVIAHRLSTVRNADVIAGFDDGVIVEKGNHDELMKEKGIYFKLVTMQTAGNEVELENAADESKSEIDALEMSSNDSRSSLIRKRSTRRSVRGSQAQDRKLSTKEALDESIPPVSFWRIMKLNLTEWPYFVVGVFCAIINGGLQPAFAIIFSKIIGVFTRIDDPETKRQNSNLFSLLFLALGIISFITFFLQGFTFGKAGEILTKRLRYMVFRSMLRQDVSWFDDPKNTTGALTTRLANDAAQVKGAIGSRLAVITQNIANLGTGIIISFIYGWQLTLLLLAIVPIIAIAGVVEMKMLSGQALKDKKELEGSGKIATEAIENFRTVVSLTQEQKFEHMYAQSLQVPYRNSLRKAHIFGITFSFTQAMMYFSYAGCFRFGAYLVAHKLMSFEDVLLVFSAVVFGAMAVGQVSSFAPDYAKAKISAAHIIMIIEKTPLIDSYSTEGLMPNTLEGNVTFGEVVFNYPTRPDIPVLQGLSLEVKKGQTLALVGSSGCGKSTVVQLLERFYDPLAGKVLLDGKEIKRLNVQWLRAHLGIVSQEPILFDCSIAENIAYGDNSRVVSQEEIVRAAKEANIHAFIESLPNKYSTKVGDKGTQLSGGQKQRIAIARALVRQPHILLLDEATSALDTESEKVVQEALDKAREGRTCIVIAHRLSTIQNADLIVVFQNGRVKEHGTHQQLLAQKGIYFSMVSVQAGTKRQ
Muscarinic acetylcholine receptor M3 (Homo sapiens), sequence (P20309 whole entry, looked up): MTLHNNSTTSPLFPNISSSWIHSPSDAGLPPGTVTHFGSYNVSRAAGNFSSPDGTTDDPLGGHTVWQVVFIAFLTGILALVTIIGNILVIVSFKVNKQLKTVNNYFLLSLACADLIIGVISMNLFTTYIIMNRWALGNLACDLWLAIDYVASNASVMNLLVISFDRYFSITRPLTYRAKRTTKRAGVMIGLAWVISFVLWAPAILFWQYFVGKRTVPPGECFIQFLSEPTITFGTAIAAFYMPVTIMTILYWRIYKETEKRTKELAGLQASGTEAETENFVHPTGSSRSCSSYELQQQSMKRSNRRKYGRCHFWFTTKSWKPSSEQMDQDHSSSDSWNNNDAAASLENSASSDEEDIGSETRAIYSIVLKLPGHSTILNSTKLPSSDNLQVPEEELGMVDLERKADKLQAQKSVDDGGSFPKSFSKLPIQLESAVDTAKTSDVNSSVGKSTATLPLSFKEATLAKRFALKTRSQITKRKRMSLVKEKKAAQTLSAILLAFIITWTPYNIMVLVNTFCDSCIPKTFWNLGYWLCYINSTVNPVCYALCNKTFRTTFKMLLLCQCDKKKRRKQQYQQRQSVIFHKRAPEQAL
MDR1a (P-gp, ABCB1), sequence (P43245 whole entry): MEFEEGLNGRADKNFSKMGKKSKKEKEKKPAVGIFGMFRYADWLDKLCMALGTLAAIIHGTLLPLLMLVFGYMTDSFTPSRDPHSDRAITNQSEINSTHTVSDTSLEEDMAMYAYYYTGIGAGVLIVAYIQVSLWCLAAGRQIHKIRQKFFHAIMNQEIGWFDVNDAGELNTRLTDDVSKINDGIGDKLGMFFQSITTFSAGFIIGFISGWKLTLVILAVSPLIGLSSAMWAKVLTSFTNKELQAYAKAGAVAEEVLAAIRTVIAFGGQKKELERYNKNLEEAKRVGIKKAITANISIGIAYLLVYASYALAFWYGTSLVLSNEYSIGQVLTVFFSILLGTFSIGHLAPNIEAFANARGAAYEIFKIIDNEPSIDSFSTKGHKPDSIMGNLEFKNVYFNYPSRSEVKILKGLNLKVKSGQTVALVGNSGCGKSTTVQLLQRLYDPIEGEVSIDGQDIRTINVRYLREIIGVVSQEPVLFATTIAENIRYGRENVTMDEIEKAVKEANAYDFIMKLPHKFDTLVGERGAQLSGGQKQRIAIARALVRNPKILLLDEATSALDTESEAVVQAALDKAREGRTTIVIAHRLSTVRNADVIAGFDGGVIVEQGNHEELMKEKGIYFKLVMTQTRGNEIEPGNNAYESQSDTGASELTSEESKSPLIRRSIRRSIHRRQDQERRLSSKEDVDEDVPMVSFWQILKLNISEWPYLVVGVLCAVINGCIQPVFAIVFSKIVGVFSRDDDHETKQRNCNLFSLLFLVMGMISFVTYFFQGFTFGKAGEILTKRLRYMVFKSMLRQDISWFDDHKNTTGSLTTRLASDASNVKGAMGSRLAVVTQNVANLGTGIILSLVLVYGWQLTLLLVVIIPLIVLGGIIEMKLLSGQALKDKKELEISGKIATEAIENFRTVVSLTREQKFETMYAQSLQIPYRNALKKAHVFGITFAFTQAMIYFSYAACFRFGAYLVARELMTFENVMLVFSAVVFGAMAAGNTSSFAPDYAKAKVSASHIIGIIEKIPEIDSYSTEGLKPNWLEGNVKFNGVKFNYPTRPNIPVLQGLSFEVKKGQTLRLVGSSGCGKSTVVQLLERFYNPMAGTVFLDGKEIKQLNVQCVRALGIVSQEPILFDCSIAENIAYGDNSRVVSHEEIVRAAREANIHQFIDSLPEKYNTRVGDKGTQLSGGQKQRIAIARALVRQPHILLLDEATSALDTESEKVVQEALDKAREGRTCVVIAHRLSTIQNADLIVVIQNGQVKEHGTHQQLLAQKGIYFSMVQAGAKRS
Voltage-gated inwardly rectifying potassium channel KCNH2, sequence (Q12809 whole entry): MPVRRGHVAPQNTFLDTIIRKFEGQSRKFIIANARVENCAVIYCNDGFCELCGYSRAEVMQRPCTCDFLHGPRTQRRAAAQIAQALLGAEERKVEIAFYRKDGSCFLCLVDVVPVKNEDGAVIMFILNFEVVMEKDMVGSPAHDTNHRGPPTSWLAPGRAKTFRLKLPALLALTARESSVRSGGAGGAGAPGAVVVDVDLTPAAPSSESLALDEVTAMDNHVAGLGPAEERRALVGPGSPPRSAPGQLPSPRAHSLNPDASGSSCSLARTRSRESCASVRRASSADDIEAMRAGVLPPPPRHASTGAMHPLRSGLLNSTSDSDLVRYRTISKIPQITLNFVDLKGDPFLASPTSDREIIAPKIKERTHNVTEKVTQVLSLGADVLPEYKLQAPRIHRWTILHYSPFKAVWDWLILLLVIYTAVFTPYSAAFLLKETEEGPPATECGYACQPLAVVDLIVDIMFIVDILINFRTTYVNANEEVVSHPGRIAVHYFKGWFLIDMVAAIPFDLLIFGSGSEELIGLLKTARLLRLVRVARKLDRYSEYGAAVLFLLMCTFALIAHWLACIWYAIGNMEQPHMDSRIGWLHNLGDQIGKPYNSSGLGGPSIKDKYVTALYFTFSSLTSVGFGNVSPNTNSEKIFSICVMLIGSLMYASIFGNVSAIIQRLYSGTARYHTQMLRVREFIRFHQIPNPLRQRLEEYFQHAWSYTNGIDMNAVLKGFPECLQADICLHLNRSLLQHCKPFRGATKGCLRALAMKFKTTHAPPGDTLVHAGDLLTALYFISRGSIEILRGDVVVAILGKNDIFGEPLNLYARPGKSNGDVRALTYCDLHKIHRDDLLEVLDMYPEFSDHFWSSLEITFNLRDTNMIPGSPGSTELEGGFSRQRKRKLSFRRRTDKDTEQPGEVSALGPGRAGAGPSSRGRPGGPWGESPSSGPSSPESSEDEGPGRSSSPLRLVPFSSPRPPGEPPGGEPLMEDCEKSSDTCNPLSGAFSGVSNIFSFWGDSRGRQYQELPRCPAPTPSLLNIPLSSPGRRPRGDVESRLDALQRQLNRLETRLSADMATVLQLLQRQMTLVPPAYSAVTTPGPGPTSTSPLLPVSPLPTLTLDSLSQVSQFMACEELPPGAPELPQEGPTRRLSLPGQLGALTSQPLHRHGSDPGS

Row | fraction unbound [2] | IP [3] | Papp [4] | Activity [5] | Activity [6] | fraction unbound [7] | Activity [8] | Kp at 2 h [9] | concentration at 2 h [10] | efflux ratio (MDR1a (P-gp, ABCB1)) | efflux ratio (MDR1 (P-gp, ABCB1)) | concentration at 2 h [16] | Structure (SMILES) | Ratio (Rattus norvegicus) | concentration at 2 h [15] | IC50 [17] | other results
1 | 0.032 | 110 nM | 29 ×10⁻⁶ cm/s | inactive | inactive | 0.087 | inactive | – | – | – | – | – | O=C(N[C@H]1CCCC[C@@H]1O)c1cc(CN2CCN(c3cc4ccccc4cn3)CC2)c2ccccn2c1=O | – | – | – | inhibition (Mus musculus [1]): Active
2 | 0.031 | 45 nM | 32 ×10⁻⁶ cm/s | inactive | inactive | 0.148 | inactive | 0.52 | 29 nM | 3.3 | 2.3 | 896 nM | N#CC1(c2ccccc2)CCN(Cc2cc(C(=O)N[C@H]3CCCC[C@@H]3O)c(=O)n3ccccc23)CC1 | 0.58 | 1610 nM | 5100 nM | –
3 | 0.073 | 147 nM | 26 ×10⁻⁶ cm/s | inactive | inactive | 0.185 | inactive | 0.28 | 27 nM | 3.4 | 1.9 | 280 nM | N#CC1(c2ccccn2)CCN(Cc2cc(C(=O)N[C@H]3CCCC[C@@H]3F)c(=O)n3ccccc23)CC1 | 0.33 | 1120 nM | – | –
4 | 0.061 | 244 nM | 30 ×10⁻⁶ cm/s | inactive | inactive | 0.095 | inactive | – | – | 4.7 | 1.1 | – | N#Cc1ccc(N2CCN(Cc3cc(C(=O)N[C@H]4CCCC[C@@H]4O)c(=O)n4ccccc34)CC2)cc1 | – | – | 390 nM | –

Row | Structure (SMILES) | fraction unbound [2] | IP [3] | Papp [4] | Activity [5] | Activity [6] | fraction unbound [7] | Activity [8] | Kp at 2 h [9] | concentration at 2 h [10] | efflux ratio (MDR1a (P-gp, ABCB1)) | efflux ratio (MDR1 (P-gp, ABCB1)) | concentration at 2 h [16] | Ratio (Rattus norvegicus) | concentration at 2 h [15] | IC50 [17] | other results
5 | N#CC1(c2ccccn2)CCN(Cc2cc(C(=O)NC3CCOCC3)c(=O)n3ccccc23)CC1 | 0.268 | 338 nM | 33 ×10⁻⁶ cm/s | inactive | inactive | 0.49 | inactive | 0.21 | 215 nM | 7.5 | 2.4 | 559 nM | 0.3 | 2650 nM | – | concentration (Plasma): 2400 nM; fold change (FC) [11]: 52; inhibition (Mus musculus [12]): Active; fraction unbound [13]: 0.49; fraction unbound [14]: 0.27
6 | N#CC1(c2ccccn2)CCN(Cc2cc(C(=O)O)c(=O)n3ccccc23)CC1 [MSD-M1PAM] | 0.318 | – | 18 ×10⁻⁶ cm/s | – | – | 0.291 | – | – | – | 1.4 | 0.5 | – | 0.3 | 1480 nM | – | inhibition (Mus musculus [18]): Active
